Test results as given in ChEMBL document CHEMBL1268893, “A practical deuterium-free NMR method for the rapid determination of 1-octanol/water partition coefficients of pharmaceutical agents” (Bioorg Med Chem Lett, 2010).

Key:
[1] = Octanol-water partition coefficient, log P of the compound by deuterium-free NMR method; format: physicochemical
[2] = Octanol-water partition coefficient, log P of the compound; format: physicochemical
[3] = Octanol-water partition coefficient, log P of the compound after partitioning between 0.1 M NaOH and 1-octanol by deuterium-free NMR method; format: physicochemical; conditions: 1-octanol/0.1 M NaOH
[4] = Octanol-water partition coefficient, log P of the compound at pH 7.0

Row | logP [1] | logP [2] | logP [3] | logD [4] | SMILES
1 | 1.45 |  |  |  | CCOc1ccc(NC(C)=O)cc1 [PHENACETIN]
2 | 0.29 | 0.33 |  |  | CC(=O)Nc1ccc(O)cc1 [ACETAMINOPHEN]
3 |  | 0.88 | 0.9 |  | CCN(CC)CCOC(=O)c1ccc(N)cc1 [PROCAINE]
4 | 2.01 | 2.54 |  |  | CC[C@H]1OC(=O)[C@H](C)[C@@H](O[C@H]2C[C@@](C)(OC)[C@@H](O)[C@H](C)O2)[C@H](C)[C@@H](O[C@@H]2O[C@H](C)C[C@H](N(C)C)[C@H]2O)[C@](C)(O)C[C@@H](C)C(=O)[C@H](C)[C@@H](O)[C@]1(C)O [ERYTHROMYCIN]
5 | -0.36 |  |  | -0.68 | O=C1CN(/N=C/c2ccc([N+](=O)[O-])o2)C(=O)N1 [NITROFURANTOIN]

Row | SMILES | logP [1] | logP [2] | logP [3] | logD [4]
6 | CC(=O)Oc1ccccc1C(=O)O [ASPIRIN] | 1.15 |  |  | 
